Experimental findings from US20240383908A1, “SYNTHESIS AND APPLICATION OF PHOSPHATASE DEGRADER” (HINOVA PHARMACEUTICALS INC., priority 2021, published 2024) are described below.

For one assay, the target named is T1, SHP2 protein (Homo sapiens, UniProt Q06124).
T1 sequence (Q06124 1-593): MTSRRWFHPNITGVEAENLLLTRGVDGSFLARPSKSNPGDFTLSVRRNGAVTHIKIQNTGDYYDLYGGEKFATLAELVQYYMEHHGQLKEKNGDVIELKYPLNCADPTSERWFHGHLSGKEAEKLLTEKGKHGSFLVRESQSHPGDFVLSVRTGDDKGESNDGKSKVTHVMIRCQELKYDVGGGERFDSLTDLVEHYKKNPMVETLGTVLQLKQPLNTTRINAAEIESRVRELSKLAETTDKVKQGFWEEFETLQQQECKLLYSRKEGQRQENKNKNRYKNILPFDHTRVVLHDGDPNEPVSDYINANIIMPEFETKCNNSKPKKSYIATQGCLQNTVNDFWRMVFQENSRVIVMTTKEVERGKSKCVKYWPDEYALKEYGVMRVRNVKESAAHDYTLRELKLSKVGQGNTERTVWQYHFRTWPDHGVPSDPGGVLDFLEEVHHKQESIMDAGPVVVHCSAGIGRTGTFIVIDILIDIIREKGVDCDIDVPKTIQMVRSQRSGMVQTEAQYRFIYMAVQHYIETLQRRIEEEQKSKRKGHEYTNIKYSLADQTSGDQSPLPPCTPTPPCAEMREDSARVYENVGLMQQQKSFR
Nature of the assay: Degradation activity on SHP2 protein in MV-411 cells (Western blot, DC50). The settings on record: MV411 cells, 24 hours, read-out: Degradation activity for differenct cell lines MV411 (DC50). Type of assay: cell-based. Set-up: endogenous in cells. Here is the method:
• MV-411 cell line (COBIER, CBP-60522) • FBS (GEMINI, Cat. No. 900-108) • 0.01M PBS (Biosharp, Cat. No. 162262) • IMDM (Hyclone, Cat. No. SH30228.01) • Penicillin-Streptomycin (Gibco, Cat. No. 15140122) • DMSO (Sigma, Cat. No. D5879) • Centrifuge Tube, 15 ml (Excell Bio, Cat. No. CS015-0001) • Cell Culture Dish, (WHB, Cat. No. CS016-0128) • 12-well cell culture cluster (Corning, Cat. No. 3513) • RIPA lysate buffer (Thermo, Cat. No. 89900) • Protein Loding Buffer (Beyotime, Cat. No. P0015L) • BCA Protein Assay Kit (EpiZyme, Cat. No. ZJ102) • SDS-PAGE Fast Preparation Kit (EpiZyme, Cat. No. PG112) • Anti-GAPDH (14C10) Rabbit mAb (CST, Cat. No. 2118L) • Anti-SHP2 rabbit mAb (CST, Cat. No. 37525) • Peroxidase Affinipure (HRP) Goat Anti-Rabbit IgG (Zen Bioscience, Cat. No. 511203) • TBST (Biosharp, Cat. No. BL601A) • ECL chemiluminescence kit (4A Biotech, Cat. No. 4AW011-200)
• (1) Cell culture medium: IMIDM medium+10% FBS+1% Pen Strep; • (2) PBS buffer: PBS powder was dissolved in 2 L of ultrapure water and sterilized; • (3) Cell lysate: RIPA lysate buffer is added with protease inhibitors at a ratio of 1:1000 before use.
(1) MV-411 cells were cultured in the cell culture medium, and then well-growing cells were selected and inoculated in a 12-well plate, with 1 mL/well and 1×10^6 cells/well. The plate was incubated overnight in a 5% CO2 cell incubator at 37° C.
(2) 10 mM storage solution of each drug was prepared using dimethylsulfoxide (DMSO). The stock solution was diluted gradually with DMSO before use, and then 1 μL of the compound solution was added to the cell culture well (to ensure that the DMSO concentration in the culture system was […]), so that the final drug concentration is 100 nM, 10 nM, 3 nM, 1 nM, 0.3 nM, and 0.1 nM. Two wells were set for each concentration. The plate was gently shaken and mixed. Additionally, negative control wells (containing an equal amount of DMSO) and positive control wells were included.
(3) After 24 hours of cultivation, the cells were lysed using RIPA cell lysate, and the proteins were extracted. The protein concentration was measured using a BCA assay kit. 5× concentrated protein buffer was loaded, heated at 100° C. for 5 min, and then the sample was stored at −20° C.
(4) For each well, 30 μg of protein was loaded to polyacrylamide gel for electrophoresis.
(5) The protein was transferred from polyacrylamide gel to PVDF membrane, and sealed at room temperature with 5% skimmed milk for 1 h, which was then incubated with the primary antibodies (Anti-SHP2 rabbit mAb and Anti-GAPDH rabbit mAb) at 4° C. overnight. The membrane was washed three times with TBST solution, 10 minutes for each time. After that, the membrane was incubated with the secondary antibodies (horseradish peroxidase labeled goat anti-rabbit IgG) at room temperature for 2 h, and then washed three times with TBST solution, 10 minutes for each time, followed by exposure.
(6) The images were analyzed with Image J grayscale, and the degradation ratio of protein bands in the test group was calculated, based on the negative control group (DMSO) (100%).
(7) Using the Dose-response-inhibition equation in the data processing software GraphPad Prism 8, the DC50 value was obtained (which represents the drug concentration corresponding to 50% degradation of the target protein).
Finally, ECL detection solution was added for color development, and photos were taken with an automatic chemiluminescence instrument, so as to collect images and analyze them.
On the technique in general: A western blot detects proteins with antibodies after separation by electrophoresis.
One may read the DC50 as the concentration giving 50% degradation. Take `CC1(N)CCN(c2cnc(Sc3cccc(NC(=O)CCCCC(=O)Nc4cccc5c4CN(C4CCC(=O)NC4=O)C5=O)c3)cn2)CC1` (centres unmarked) [Compound 1]: the 50% degradation concentration (DC50) is > 1000 nM.
The same measure, in the same setting: the figure for `CC1(N)CCN(c2cnc(Sc3cccc(NC(=O)CCCCCCCC(=O)NCc4ccc5c(c4)CN(C4CCC(=O)NC4=O)C5=O)c3)cn2)CC1` (centres unmarked) [Compound 2] is 100 to 1000 nM; for `CC1(N)CCN(c2cnc(Sc3cccc(NC(=O)COCCOCCOCCOCC(=O)NCc4ccc5c(c4)CN(C4CCC(=O)NC4=O)C5=O)c3)cn2)CC1` (centres unmarked) [Compound 3] it is 100 to 1000 nM.
In the case of `CC1(N)CCN(c2cnc(Sc3cccc(NC(=O)COCCOCCOCCOCC(=O)Nc4ccc5c(c4)C(=O)N(C4CCC(=O)NC4=O)C5)c3)cn2)CC1` (centres unmarked) [Compound 4], the half-maximal degradation concentration (DC50) fell in the range of 100 to 1000 nM.
`CC1(N)CCN(c2cnc(Sc3cccc(NC(=O)CC(=O)Nc4cccc5c4CN(C4CCC(=O)NC4=O)C5=O)c3)cn2)CC1` (centres unmarked) [Compound 5]: the half-maximal degradation concentration (DC50) was > 1000 nM.
Consider `Cc1ncsc1-c1ccc([C@H](C)NC(=O)[C@@H]2C[C@@H](O)CN2C(=O)[C@@H](NC(=O)COCCOCCOCCOCC(=O)Nc2ccc(Sc3cnc(N4CCC(C)(CN)CC4)cn3)c(Cl)c2)C(C)(C)C)cc1` [Compound 7], for which the 50% degradation concentration (DC50) is 100 to 1000 nM.
For `CC1(CN)CCN(c2cnc(Sc3ccc(NC(=O)COCCOCC(=O)Nc4ccc5c(c4)C(=O)N(C4CCC(=O)NC4=O)C5)cc3Cl)cn2)CC1` (centres unmarked) [Compound 8], the 50% degradation concentration (DC50) is > 1000 nM.
In the case of `CC1(N)CCN(c2cnc(Sc3cccc(NC(=O)CC(=O)Nc4ccc5c(c4)C(=O)N(C4CCC(=O)NC4=O)C5)c3)cn2)CC1` (centres unmarked) [Compound 9], the 50% degradation concentration (DC50) is > 1000 nM.
On the same count and under the same terms, the figure for `CC1(CN)CCN(c2cnc(Sc3ccc(NC(=O)COCCOCCOCCOCC(=O)Nc4ccc5c(c4)C(=O)N(C4CCC(=O)NC4=O)C5)cc3Cl)cn2)CC1` (centres unmarked) [Compound 11] is > 1000 nM.

In the next assay the target is T1, SHP2 protein. As to the kind of experiment: Degradation activity on SHP2 protein in MIA Paca-2 cells (Western blot, DC50). The conditions noted are these: read-out: Degradation activity for differenct cell lines MIA Paca-2 (DC50). Set-up: endogenous in cells; host or cells: MIA Paca-2 cells. Type of assay: cell-based. The procedure, abridged: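 Cells were treated 24 h at 37 °C with compound (0.1–100 nM final, 0.1% DMSO). SHP2 was measured by Western blot with GAPDH as loading control, densitometry normalized to DMSO (100%). DC50, the concentration giving 50% degradation, came from a dose-response fit.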
On to `CC1(N)CCN(c2cnc(Sc3cccc(NC(=O)c4ccc(N5CCC(N6CCN(c7ccc(C(=O)NCc8ccc9c(c8)CN(C8CCC(=O)NC8=O)C9=O)nn7)CC6)CC5)nn4)c3)cn2)CC1` (centres unmarked) [Compound 498], for which the half-maximal degradation concentration (DC50) lay within 100 to 1000 nM.
The same measure, in the same setting: for `CC1(N)CCN(c2cnc(Sc3cccc(NC(=O)c4ccc(N5CCC(N6CCN(c7ccc(C(=O)NCc8ccc9c(c8)CN(C8CCC(=O)NC8=O)C9=O)cc7F)CC6)CC5)c(F)c4)c3)cn2)CC1` (centres unmarked) [Compound 499] the value was < 100 nM; for `CC1(N)CCN(c2cnc(Sc3cccc(NC(=O)c4ccc(N5CCC(N6CCN(c7ccc(C(=O)NCc8ccc9c(c8)CN(C8CCC(=O)NC8=O)C9=O)c(F)c7)CC6)CC5)cc4)c3)cn2)CC1` (centres unmarked) [Compound 502], < 100 nM; for `CC1(N)CCN(c2cnc(Sc3cccc(NC(=O)c4ccc(N5CCC(N6CCN(c7ccc(C(=O)NCc8ccc9c(c8)CN(C8CCC(=O)NC8=O)C9=O)c(F)c7)CC6)CC5)c(F)c4)c3)cn2)CC1` (centres unmarked) [Compound 503], < 100 nM.
Same read-out and setting: the figure for `C[C@@H]1OCC2(CCN(c3cnc(Sc4cccc(NC(=O)c5ccc(C6CC(N7CC=C(c8ccc(C(=O)NCc9ccc%10c(c9)CN(C9CCC(=O)NC9=O)C%10=O)nc8)CC7)C6)cc5)c4)cn3)CC2)[C@@H]1N` (some centres unmarked) [Compound 504] is < 100 nM; for `CC1(N)CCN(c2cnc(Sc3cccc(NC(=O)c4ccc(N5CCC(N6CCC(c7ccc(C(=O)NCc8ccc9c(c8)CN(C8CCC(=O)NC8=O)C9=O)cc7)C(F)C6)CC5)c(F)c4)c3)cn2)CC1` (centres unmarked) [Compound 506] it is < 100 nM; for `Cc1cc(C(=O)Nc2cccc(Sc3cnc(N4CCC(C)(N)CC4)cn3)c2)ccc1N1CCC(N2CCN(c3nnc(C(=O)NCc4ccc5c(c4)CN(C4CCC(=O)NC4=O)C5=O)cc3Cl)CC2)CC1` (centres unmarked) [Compound 507] it is < 100 nM.
Consider `CC1(N)CCN(c2cnc(Sc3cccc(NC(=O)c4ccc(N5CCC(N6CCN(c7cnc(C(=O)NCc8ccc9c(c8)CN(C8CCC(=O)NC8=O)C9=O)cc7Cl)CC6)CC5)cc4)c3)cn2)CC1` (centres unmarked) [Compound 508], for which the 50% degradation concentration (DC50) was < 100 nM.
Same read-out and setting: for `CC1(N)CCN(c2cnc(Sc3cccc(NC(=O)c4cnc(N5CCC(N6CCN(c7ccc(C(=O)NCc8ccc9c(c8)CN(C8CCC(=O)NC8=O)C9=O)nn7)CC6)CC5)cn4)c3)cn2)CC1` (centres unmarked) [Compound 509] the value was < 100 nM; for `C[C@@H]1OCC2(CCN(c3cnc(Sc4cccc(NC(=O)c5ccc(N6CCC(N7CCC(c8ccc(C(=O)NCc9ccc%10c(c9)CN(C9CCC(=O)NC9=O)C%10=O)cc8)C(F)C7)CC6)c(F)c5)c4)cn3)CC2)[C@@H]1N` (some centres unmarked) [Compound 510], < 100 nM; for `CC1(N)CCN(c2cnc(Sc3cccc(NC(=O)c4ccc(N5CCC(N6CC=C(C7CCC(C(=O)NCc8ccc9c(c8)CN(C8CCC(=O)NC8=O)C9=O)CC7)CC6)CC5)c(F)c4)c3)cn2)CC1` (centres unmarked) [Compound 511], < 100 nM.
Regarding `C[C@@H]1OCC2(CCN(c3cnc(Sc4cccc(NC(=O)c5ccc(N6CCC(N7CC=C(C8CCC(C(=O)NCc9ccc%10c(c9)CN(C9CCC(=O)NC9=O)C%10=O)CC8)CC7)CC6)c(F)c5)c4)cn3)CC2)[C@@H]1N` (some centres unmarked) [Compound 512], the 50% degradation concentration (DC50) is 100 to 1000 nM.
Regarding `CC1(N)CCN(c2cnc(Sc3cccc(NC(=O)c4ccc(N5CCC(N6CCN(c7ccc(C(=O)NCc8ccc9c(c8)CN(C8CCC(=O)NC8=O)C9=O)cc7F)CC6)CC5)cc4)c3)cn2)CC1` (centres unmarked) [Compound 513], the DC50 is < 100 nM.
On the same count and under the same terms, for `C[C@@H]1OCC2(CCN(c3cnc(Sc4cccc(NC(=O)c5ccc(N6CCC(N7CCN(c8ccc(C(=O)NCc9ccc%10c(c9)CN(C9CCC(=O)NC9=O)C%10=O)cc8F)CC7)CC6)c(F)c5)c4)cn3)CC2)[C@@H]1N` (some centres unmarked) [Compound 515] the value was < 100 nM; for `C[C@@H]1OCC2(CCN(c3cnc(Sc4cccc(NC(=O)c5ccc(N6CCC(N7CC=C(c8ccc(C(=O)NCc9ccc%10c(c9)CN(C9CCC(=O)NC9=O)C%10=O)nc8)CC7)C6)c(F)c5)c4)cn3)CC2)[C@@H]1N` (some centres unmarked) [Compound 516], < 100 nM; for `C[C@@H]1OCC2(CCN(c3cnc(Sc4cccc(NCc5ccc(N6CCC(N7CC=C(c8ccc(C(=O)NCc9ccc%10c(c9)CN(C9CCC(=O)NC9=O)C%10=O)nc8Cl)CC7)CC6)c(F)c5)c4)cn3)CC2)[C@@H]1N` (some centres unmarked) [Compound 518], 100 to 1000 nM.
For the compound `C[C@@H]1OCC2(CCN(c3cnc(Sc4cccc(NC(=O)c5ccc(N6CCC(N7CC=C(c8ccc(C(=O)NCc9ccc%10c(c9)CN(C9CCC(=O)NC9=O)C%10=O)nn8)CC7)C6)cc5)c4)cn3)CC2)[C@@H]1N` (some centres unmarked) [Compound 520], the DC50 was < 100 nM.
